Measured values reported in US20230322724A1, “HETEROCYCLIC COMPOUNDS AS CBP/EP300 BROMODOMAIN INHIBITORS” (AURIGENE ONCOLOGY LIMITED, priority 2020, published 2023).
Like-named read-outs stand apart in the source and are kept apart here.

Assays:
[1] = target: T1, recombinant CREBBP bromodomain (Homo sapiens, UniProt Q92793); assay: CBP TR-FRET displacement assay; type: binding; conditions: dose-response, read-out: IC50 (group A, B, C)
T1 construct: recombinant CREBBP bromodomain obtained from BPS Bioscience, USA; purchased BPS Bioscience, USA
Summary of the method: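 CREBBP bromodomain (50 nM) preincubated 30 min at room temperature with 500 nM biotinylated ligand in HEPES pH 7.5 buffer with TCEP, then 60 min with compound. Eu-anti-His/APC-streptavidin TR-FRET 665/615 nm ratio read; IC50 from sigmoidal dose-response fit.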

[2] = target: T2, recombinant BRD4 FL bromodomain (Homo sapiens, UniProt O60885); assay: BRD4 FL TR-FRET displacement assay; type: binding; conditions: for IC50: dose-response, read-out: IC50 (group A, B, C); for inhibition at 10 µM: read-out: % Inhibition (10 μM)
T2 construct: fused on or other part: 6xHis tag, inferred from detection with Mab ANTI 6HIS-XL665
Procedure: The potency of compounds to inhibit BRD4 FL enzyme was tested in a TR-FRET displacement assay using recombinant BRD4 FL bromodomain obtained In-house. The assay buffer was 50 mM HEPES (pH 7.5), 50 mM NaCl, 500 μM CHAPS. 10 nM of BRD4 FL & 300 nM of Biotinylated Acetyl histone H4 (Lys 5, 8, 12, 16) (Millipore, USA) was incubated at room temperature for 30 minutes, the reaction was initiated by adding the pre-incubated enzyme ligand mixture to the test compounds. After 30 min incubation, the reaction was stopped by the addition of stop mix containing 1 nM of Europium Streptavidin cryptate (Cisbio, USA) and 5 nM of Mab ANTI 6HIS-XL665 (Cisbio, USA) dilutes in assay buffer containing 2.4M Potassium Fluoride. Fluorescence emission of the samples at 665 and 615 nm were measured at an excitation of 340 nm and their ratio was plotted against the compound concentrations to generate dose-response curve. The percent inhibition of the test compounds is calculated using the ratio of enzyme activity controls.
Selected compounds of the present invention were screened in the above-mentioned assay procedures and IC50 values were determined by fitting the dose-response data to sigmoidal curve fitting equation using Graph pad prism software V7.

T1 sequence (Q92793 1085-1192 limits assumed): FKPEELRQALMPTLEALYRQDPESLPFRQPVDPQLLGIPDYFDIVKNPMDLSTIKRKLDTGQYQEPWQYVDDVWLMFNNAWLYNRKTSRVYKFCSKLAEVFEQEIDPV

Row | SMILES | IC50 [1] [nM] | IC50 ([2]; BRD4 FL) [nM] | inhibition at 10 µM ([2]; BRD4 FL, compound at 10 μM) [%] | inhibition at 10 µM [2] [%]
1 | Cc1cc2c(N3CCN(C)c4cc(F)c(S(N)(=O)=O)cc43)cc(N3CCOCC3)cc2n(C)c1=O [Example 88] | < 50 | 2010 to 5000 | – | –
2 | COc1cc(N2CCN(C)c3cc(C4CC=NO4)c(S(N)(=O)=O)cc32)c2cc(C)c(=O)n(C)c2c1 (stereo not shown) [Example 91, 7-(4,5-Dihydroisoxazol-5-yl)-4-(7-methoxy-1,3-dimethyl-2-oxo-1,2-dihydroquinolin-5-yl)-1-methyl-1,2,3,4-tetrahydroquinoxaline-6-sulfonamide] | < 50 | 2010 to 5000 | – | –
3 | CNS(=O)(=O)c1ccc2c(c1)N(c1cc(OC)cc3c1cc(C)c(=O)n3C)CCN2C [Example 95] | < 50 | 2010 to 5000 | – | –
4 | COc1cc(N2CCN(C3CC3)c3ccc(S(N)(=O)=O)cc32)c2cc(C)c(=O)n(C)c2c1 [Example 96] | 51 to 100 | 2010 to 5000 | – | –
5 | COc1cc(N2CCN(C)c3ccc(S(=O)(=O)NC(C)=O)cc32)c2cc(C)c(=O)n(C)c2c1 [Example 98] | < 50 | – | 56 | –
6 | COc1cc(N2CCN(C)c3ccc(S(C)(=O)=O)cc32)c2cc(C)c(=O)n(C)c2c1 [Example 100] | 51 to 100 | 2010 to 5000 | – | –
7 | COc1cc(N2CCN(C)c3ccc(S(=O)(=O)Nc4ccccc4)cc32)c2cc(C)c(=O)n(C)c2c1 [Example 102] | > 10 | 2010 to 5000 | – | –
8 | CC(=O)NS(=O)(=O)c1ccc2c(c1)N(c1cccc3c1cc(C)c(=O)n3C)CCN2C [Example 103, N-((4-(1,3-dimethyl-2-oxo-1,2-dihydroquinolin-5-yl)-1-methyl-1,2,3,4-tetrahydroquinoxalin-6-yl)sulfonyl)acetamide] | > 10 | – | 36 | –
9 | COc1cc(N2CCN(C)c3cc(F)c(S(=O)(=O)NC(C)=O)cc32)c2cc(C)c(=O)n(C)c2c1 [Example 104] | < 50 | – | 48 | –
10 | CCC(=O)NS(=O)(=O)c1ccc2c(c1)N(c1cc(OC)cc3c1cc(C)c(=O)n3C)CCN2C [Example 106] | 51 to 100 | – | 16 | –
11 | COc1cc(N2CCN(C)c3ccc(S(=O)(=O)NC(=O)C(F)(F)F)cc32)c2cc(C)c(=O)n(C)c2c1 [Example 107] | 51 to 100 | – | 15 | –
12 | CC(=O)NS(=O)(=O)c1cc2c(cc1-c1cnn(C)c1)N(C)CCN2c1cccc2c1cc(C)c(=O)n2C [Example 112] | < 50 | – | 44 | –
13 | COc1cc(N2CCN(C)c3cc(-c4cnn(C)c4)ncc32)c2cc(C)c(=O)n(C)c2c1 [Example 116, 7-Methoxy-1,3-dimethyl-5-(1-methyl-7-(1-methyl-1H-pyrazol-4-yl)-2,3-dihydropyrido[3,4-b]pyrazin-4(1H)-yl)quinolin-2(1H)-one] | 51 to 100 | – | 50 | –
14 | COc1cc(N2CCN(C)c3cc(-c4cnn(C)c4)nc(C)c32)c2cc(C)c(=O)n(C)c2c1 [Example 127] | < 50 | – | 32 | –
15 | Cc1cc2c(N3CCN(C)c4cc(-c5cnn(C)c5)ncc43)cc(OC(F)F)cc2n(C)c1=O [Example 129] | > 10 | 2010 to 5000 | – | –
16 | Cc1cc2c(N3CCN(C)c4cc(-c5cnn(C)c5)ncc43)cc(OCC(F)F)cc2n(C)c1=O [Example 130] | 51 to 100 | – | 48 | –
17 | Cc1cc2c(N3CCN(C)c4cc(-c5cnn(C)c5)ncc43)cccc2n(C)c1=O [Example 131] | > 10 | – | 52 | –
18 | Cc1cc2c(N3CCN(C)c4cc(-c5cnn(C)c5)ncc43)cc(N3CC(C)OC(C)C3)cc2n(C)c1=O (stereo not shown) [Example 132] | < 50 | 2010 to 5000 | – | –

Row | SMILES | IC50 [1] [nM] | IC50 ([2]; BRD4 FL) [nM] | inhibition at 10 µM ([2]; BRD4 FL, compound at 10 μM) [%] | inhibition at 10 µM [2] [%]
19 | Cc1cc2c(N3CCN(C)c4cc(-c5cnn(C)c5)ncc43)cc(N3C[C@@H](C)O[C@@H](C)C3)cc2n(C)c1=O [Example 133] | 51 to 100 | 2010 to 5000 | – | –
20 | COc1ccc(CN2CCN(c3cc(N4CCOCC4)cc4c3cc(C)c(=O)n4C)c3cnc(-c4cnn(C)c4)cc32)cc1 [Example 135] | 51 to 100 | 2010 to 5000 | – | –
21 | Cc1cc2c(N3CCN(C)c4cc(-c5cnn(C(C)C)c5)ncc43)cc(N3CCOCC3)cc2n(C)c1=O [Example 136] | < 50 | 2010 to 5000 | – | –
22 | Cc1cc2c(N3CCN(C)c4cc(-c5cnn(C)c5)ncc43)cc(N3CCOC(C)C3)cc2n(C)c1=O (stereo not shown) [Example 147] | 51 to 100 | – | 66 | –
23 | Cc1cc2c(N3CCN(C)c4cc(-c5cnn(C)c5)ncc43)cc(N3CCS(=O)(=O)CC3)cc2n(C)c1=O [Example 148] | > 10 | – | 55 | –
24 | Cc1cc2c(N3CCN(C)c4cc(-c5cnn(C)c5)ncc43)cc(N3CCC4(COC4)C3)cc2n(C)c1=O [Example 150] | < 50 | 2010 to 5000 | – | –
25 | Cc1cc2c(N3CCN(C)c4cc(-c5cnn(C)c5)ncc43)cc(C(C)C)cc2n(C)c1=O [Example 151, 7-Isopropyl-1,3-dimethyl-5-(1-methyl-7-(1-methyl-1H-pyrazol-4-yl)-2,3-dihydropyrido[3,4-b]pyrazin-4(1H)-yl)quinolin-2(1H)-one] | 51 to 100 | – | 49 | –
26 | Cc1cc2c(N3CCN(C)c4cc(-c5cnn(C)c5)ncc43)cc(C3CCCCC3)cc2n(C)c1=O [Example 152] | 51 to 100 | – | 48 | –
27 | CC(=O)N1CCC(c2cc(N3CCN(C)c4cc(-c5cnn(C)c5)ncc43)c3cc(C)c(=O)n(C)c3c2)CC1 [Example 153] | < 50 | – | 45 | –
28 | Cc1cc2c(N3CCN(C)c4cc(-c5cnn(C)c5)ncc43)cc(C3CCC(F)(F)CC3)cc2n(C)c1=O [Example 154] | 51 to 100 | 2010 to 5000 | – | –
29 | Cc1cc2c(N3CCN(C)c4cc(-c5cnn(C)c5)ncc43)cc(OC(C)C)cc2n(C)c1=O [Example 156, 7-Isopropoxy-1,3-dimethyl-5-(1-methyl-7-(1-methyl-1H-pyrazol-4-yl)-2,3-dihydropyrido[3,4-b]pyrazin-4(1H)-yl)quinolin-2(1H)-one] | 51 to 100 | – | – | 47
30 | Cc1cc2c(N3CCN(C)c4cc(-c5cnn(C)c5)ncc43)cc(OC3CCOC3)cc2n(C)c1=O (stereo not shown) [Example 157] | 51 to 100 | – | 41 | –
31 | Cc1cc2c(N3CCN(C)c4cc(-c5cnn(C)c5)ncc43)cc(OCc3ncco3)cc2n(C)c1=O [Example 159] | 51 to 100 | 2010 to 5000 | – | –
32 | Cc1cc2c(N3CCNc4cc(-c5cnn(C)c5)ncc43)cc(N3CCOCC3)cc2n(C)c1=O [Example 161, 1,3-Dimethyl-5-(7-(1-methyl-1H-pyrazol-4-yl)-2,3-dihydropyrido[3,4-b]pyrazin-4(1H)-yl)-7-morpholinoquinolin-2(1H)-one] | > 10 | – | 16 | –
33 | CC(=O)N1CCN(c2cc(N3CCOCC3)cc3c2cc(C)c(=O)n3C)c2cnc(-c3cnn(C)c3)cc21 [Example 162, 5-(1-Acetyl-7-(1-methyl-1H-pyrazol-4-yl)-2,3-dihydropyrido[3,4-b]pyrazin-4(1H)-yl)-1,3-dimethyl-7-morpholinoquinolin-2(1H)-one] | < 50 | 2010 to 5000 | – | –
34 | Cc1cc2c(N3CCN(C(F)F)c4cc(-c5cnn(C)c5)ncc43)cc(N3CCOCC3)cc2n(C)c1=O [Example 163, 5-(1-(Difluoromethyl)-7-(1-methyl-1H-pyrazol-4-yl)-2,3-dihydropyrido[3,4-b]pyrazin-4(1H)-yl)-1,3-dimethyl-7-morpholinoquinolin-2(1H)-one] | > 10 | – | – | 16
35 | Cc1cc2c(N3CCN(CC(=O)O)c4cc(-c5cnn(C)c5)ncc43)cc(N3CCOCC3)cc2n(C)c1=O [Example 164, 2-(4-(1,3-Dimethyl-7-morpholino-2-oxo-1,2-dihydroquinolin-5-yl)-7-(1-methyl-1H-pyrazol-4-yl)-3,4-dihydropyrido[3,4-b]pyrazin-1(2H)-yl)acetic acid] | 51 to 100 | – | 38 | –
